Assay results as given in US11981954B2, “Compositions and methods for rapid identification and phenotypic antimicrobial susceptibility testing of bacteria and fungi” (priority 2019, dated 2024).

Legend:
Details in all cases: interpreted according to CLSI M100 ED 30, confirmed by PCR ID/AST after 4 h incubation, 5E5 CFU/mL
E. faecium strain 18483 = assay: PCR-based rapid ID/AST and CLSI susceptibility interpretation, E. faecium strain 18483; format: cell-based, Enterococcus faecium
Experimental: (§1) • a. Prepare antimicrobial (Abx) Plate ahead of time and store at […] until needed • i. Diluent—Cation Adjusted Mueller Hinton Broth (CAMHB) • ii. Final Vol—50 ul/well • iii. Remove from −80 C and let thaw at 30 min/Room Temp prior to use
(§2) • b. Overnight cultures in CAMHB—37 C/16-18 hrs/500 rpm • i. 10 ul glycerol stock+490 ul CAMHB in 2 mL 96-well Deep Well Plate • c. Normalize cultures to 1.00E+06 CFU/mL by Optical Density (OD) • d. Prepare Test Plate by adding 50 ul normalized test isolate to appropriate wells of Abx Plate as outlined
(§3) • e. Incubate Test Plate at 37 C/4 hrs/no shaking • f. Prepare PCR Reagents according to TABLE XXIX • g. Add 45 ul Master Mix to each well of a PCR Assay Plate • h. Following incubation, stamp 5 ul/well of Test Plate to PCR Assay Plate • i. Final Vol—50 ul/well • i. For Test Plate, continue incubating at 37 C/12-16 hrs/no shaking to determine reference method Minimum Inhibitory Concentration (MIC) • j. Load PCR Assay Plate to cobas z 480 instrument and run under conditions of TABLE XXX. • k. Following incubation read Test Plate for MIC and determine phenotypic Susceptible/Intermediate/Resistant interpretation. […]

E. faecium strain 18446 = assay: PCR-based rapid ID/AST and CLSI susceptibility interpretation, E. faecium strain 18446; format: cell-based, Enterococcus faecium
Experimental: as §1, §2, §3

S. aureus strain 15509 = assay: PCR-based rapid ID/AST and CLSI susceptibility interpretation, S. aureus strain 15509; format: cell-based, Staphylococcus aureus
Experimental: as §1, §2
(§4) • e. Incubate Test Plate at 37 C/4 hrs/no shaking • f. Prepare PCR Reagents according to TABLE XXIX • g. Add 45 ul Master Mix to each well of a PCR Assay Plate • h. Following incubation, stamp 5 ul/well of Test Plate to PCR Assay Plate • i. Final Vol—50 ul/well • i. For Test Plate, continue incubating at 37 C/12-16 hrs/no shaking to determine reference method Minimum Inhibitory Concentration (MIC) • j. Load PCR Assay Plate to cobas z 480 instrument and run under conditions of TABLE XXX. • k. Following incubation read Test Plate for MIC and determine phenotypic Susceptible/Intermediate/Resistant interpretation.
(§5) Rapid Identification and phenotypic antimicrobial susceptibility testing of Staphylococcus aureus utilizing three distinct target genes (gyrB, ddlA, tuf) and one class of antibacterial agent, cefoxitin (cephalosporin) was performed. […]

S. aureus strain 16405 = assay: PCR-based rapid ID/AST and CLSI susceptibility interpretation, S. aureus strain 16405; format: cell-based, Staphylococcus aureus
Experimental: as §1, §2, §4, §5

[1] = test system: P. aeruginosa strain 17816; assay: PCR-based rapid ID/AST and CLSI susceptibility interpretation, P. aeruginosa strain 17816; format: cell-based, Pseudomonas aeruginosa
Experimental: as §1, §2, §4
(§6) The primer/probe sets used were as follows. […]

[2] = test system: K. pneumoniae strain 0143; assay: PCR-based rapid ID/AST and CLSI susceptibility interpretation, K. pneumoniae strain 0143; format: cell-based, Klebsiella pneumoniae
Experimental: as §1, §2, §4, §6
(§7) The percentages on the Y-axis depicted as “Fold Change Abx level 1” were determined using the calculation 2^-(Abx_Level_1_Ct−Reference_Ct) or 2^-([…]Ct).

[3] = test system: K. pneumoniae strain 16565; assay: PCR-based rapid ID/AST and CLSI susceptibility interpretation, K. pneumoniae strain 16565; format: cell-based, Klebsiella pneumoniae
Experimental: as §1, §2, §4, §6, §7

[4] = test system: P. aeruginosa strain 16657; assay: PCR-based rapid ID/AST and CLSI susceptibility interpretation, P. aeruginosa strain 16657; format: cell-based, Pseudomonas aeruginosa
Experimental: as §1, §2, §4, §6

[5] = test system: A. baumannii strain 17694; assay: PCR-based rapid ID/AST and CLSI susceptibility interpretation, A. baumannii strain 17694; format: cell-based, Acinetobacter baumannii
Experimental: as §1, §2, §4, §6

[6] = test system: A. baumannii strain 16421; assay: PCR-based rapid ID/AST and CLSI susceptibility interpretation, A. baumannii strain 16421; format: cell-based, Acinetobacter baumannii
Experimental: as §1, §2, §4, §6

Compound	antimicrobial susceptibility of the strain to the given antimicrobial (E. faecium strain 18483)	antimicrobial susceptibility of the strain to the given antimicrobial (E. faecium strain 18446)	antimicrobial susceptibility of the strain to the given antimicrobial (S. aureus strain 15509)	antimicrobial susceptibility of the strain to the given antimicrobial (S. aureus strain 16405)	antimicrobial susceptibility of the strain to the given antimicrobial [1]	antimicrobial susceptibility of the strain to the given antimicrobial [2]	antimicrobial susceptibility of the strain to the given antimicrobial [3]	antimicrobial susceptibility of the strain to the given antimicrobial [4]	antimicrobial susceptibility of the strain to the given antimicrobial [5]	antimicrobial susceptibility of the strain to the given antimicrobial [6]
CC1(C)S[C@@H]2[C@H](NC(=O)[C@H](N)c3ccccc3)C(=O)N2[C@H]1C(=O)O [ampicillin]	resistant	sensitive	–	–	–	–	–	–	–	–
CO[C@@]1(NC(=O)Cc2cccs2)C(=O)N2C(C(=O)O)=C(COC(N)=O)CS[C@@H]21 [cefoxitin]	–	–	resistant	sensitive	–	–	–	–	–	–
C[C@@H](O)[C@H]1C(=O)N2C(C(=O)O)=C(S[C@@H]3CN[C@H](C(=O)N(C)C)C3)[C@H](C)[C@H]12 [meropenem]	–	–	–	–	sensitive	resistant	sensitive	resistant	resistant	sensitive
CN[C@H](CC(C)C)C(=O)N[C@H]1C(=O)N[C@@H](CC(N)=O)C(=O)N[C@H]2C(=O)N[C@H]3C(=O)N[C@H](C(=O)N[C@H](C(=O)O)c4cc(O)cc(O)c4-c4cc3ccc4O)[C@H](O)c3ccc(c(Cl)c3)Oc3cc2cc(c3O[C@@H]2O[C@H](CO)[C@@H](O)[C@H](O)[C@H]2O[C@H]2C[C@](C)(N)[C@H](O)[C@H](C)O2)Oc2ccc(cc2Cl)[C@H]1O [vancomycin]	resistant	sensitive	–	–	–	–	–	–	–	–
gentamicin	–	–	–	–	sensitive	resistant	sensitive	resistant	resistant	sensitive
